From US11000033B2, “Ketone or oxime compound, and herbicide” (NISSAN CHEMICAL CORPORATION, priority 2014, dated 2021)

What was measured:
Format in all cases: in vivo
[1] = test system: Alopecurus myosuroides; assay: Test Example 5: herbicidal effect by foliage application, plastic box (symbol J); settings: 320 g/ha, 3 weeks after application
Summary of the method: (§1)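 Sowing in sterilized diluvial soil, 14 days' greenhouse growth at 25° C. to 30° C., then uniform small-sprayer foliar application of aqueous emulsion dilution; plants scored three weeks afterwards.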

[2] = test system: rice plant; assay: Test Example 5: effect on crop by foliage application, plastic box (symbol b); settings: 320 g/ha, 3 weeks after application
Summary of the method: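 Soil: sterilized diluvial. Container: plastic box, 21 × 13 cm, 7 cm deep. Sowing: spot-like, ~1.5 cm cover. Growth: greenhouse, 25° C. to 30° C.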

[3] = test system: Avena fatua; assay: Test Example 4: herbicidal effect by soil treatment (symbol I); settings: 320 g/ha
Summary of the method: (§2)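 Seeds were sown in sterilized diluvial soil, covered with about 1.5 cm of soil, and the soil surface was sprayed with a water-diluted emulsion of the compound at a predetermined rate. Plants grew in a greenhouse at 25° C. to 30° C.; effects were scored visually 3 weeks after application.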

[4] = test system: Chenopodium album; assay: Test Example 5: herbicidal effect by foliage application, plastic box (symbol O); settings: 320 g/ha, 3 weeks after application
Summary of the method: as §1

[5] = test system: Stellaria media; assay: Test Example 4: herbicidal effect by soil treatment (symbol P); settings: 320 g/ha
Summary of the method: as §2

[6] = test system: Lolium multiflorum Lam.; assay: Test Example 4: herbicidal effect by soil treatment (symbol K); settings: 320 g/ha
Summary of the method: as §2

[7] = test system: Digitaria ciliaris; assay: Test Example 4: herbicidal effect by soil treatment (symbol F); settings: 320 g/ha
Summary of the method: as §2

[8] = test system: Setaria viridis; assay: Test Example 4: herbicidal effect by soil treatment (symbol G); settings: 320 g/ha
Summary of the method: as §2

[9] = test system: wheat; assay: Test Example 4: effect on crop by soil treatment (symbol e); settings: 320 g/ha
Summary of the method: (§3)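 Steps: fill box with sterilized diluvial soil; sow seed spot-like; cover with ~1.5 cm soil; grow in greenhouse (25° C. to 30° C.).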

[10] = test system: Monochoria vaginalis; assay: Test Example 2: herbicidal activity, application during weed generation in submerged conditions (symbol C); settings: Table 23; application herbicide amount 320 g/ha; grade 0-5 by criteria of Test Example 1
Summary of the method: (§4)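 Visual herbicidal ratings, taken three weeks after dosing, reflect post-emergence water-surface application to seedlings at one to two leaves. Conditions: co-sown weeds in alluvial soil flooded to 4 cm, greenhouse held at 25° C. to 30° C.; compound given as water-diluted emulsion at a fixed herbicide amount.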

[11] = test system: rice; assay: Test Example 4: effect on crop by soil treatment (symbol b); settings: 320 g/ha
Summary of the method: as §3

[12] = test system: Alopecurus myosuroides; assay: Test Example 4: herbicidal effect by soil treatment (symbol J); settings: 320 g/ha
Summary of the method: as §2

[13] = test system: Echinochloa crus-galli var. crus-galli; assay: Test Example 5: herbicidal effect by foliage application, plastic box (symbol H); settings: 320 g/ha, 3 weeks after application
Summary of the method: as §1

[14] = test system: Echinochloa oryzacola Vasing.; assay: Test Example 2: herbicidal activity, application during weed generation in submerged conditions (symbol A); settings: Table 23; application herbicide amount 320 g/ha; grade 0-5 by criteria of Test Example 1
Summary of the method: as §4

[15] = test system: Veronica persica; assay: Test Example 4: herbicidal effect by soil treatment (symbol R); settings: 320 g/ha
Summary of the method: as §2

[16] = test system: Stellaria media; assay: Test Example 5: herbicidal effect by foliage application, plastic box (symbol P); settings: 320 g/ha, 3 weeks after application
Summary of the method: as §1

[17] = test system: Scirpus juncoides; assay: Test Example 2: herbicidal activity, application during weed generation in submerged conditions (symbol B); settings: Table 23; application herbicide amount 320 g/ha; grade 0-5 by criteria of Test Example 1
Summary of the method: as §4

[18] = test system: Echinochloa crus-galli var. crus-galli; assay: Test Example 3: herbicidal effect by foliage application, Wagner pot (symbol H); settings: application herbicide amount 320 g/ha
Summary of the method: (§5)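 Herbicidal activity was rated three weeks after a foliar spray of diluted emulsion concentrate, applied at a predetermined dose to plants grown for 14 days from seed in waterlogged alluvial soil within a 25–30 °C greenhouse.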

[19] = test system: Leptochloa chinensis; assay: Test Example 3: herbicidal effect by foliage application, Wagner pot (symbol D); settings: application herbicide amount 320 g/ha
Summary of the method: as §5

[20] = test system: Amaranthus retroflexus; assay: Test Example 5: herbicidal effect by foliage application, plastic box (symbol N); settings: 320 g/ha, 3 weeks after application
Summary of the method: as §1

SMILES | J: Alopecurus myosuroides, herbicidal effect (criteria 0-5) [1] | b: directly sowed rice plant, effect on crop (criteria 0-5) [2] | I: Avena fatua, herbicidal effect grade [3] | O: Chenopodium album, herbicidal effect (criteria 0-5) [4] | P: Stellaria media, herbicidal effect grade [5] | K: Lolium multiflorum Lam., herbicidal effect grade [6] | F: Digitaria ciliaris, herbicidal effect grade [7] | G: Setaria viridis, herbicidal effect grade [8] | e: wheat, effect grade on crop [9] | Herbicidal effect grade, C: Monochoria vaginalis [10] | b: directly sowed rice plant, effect grade on crop [11] | J: Alopecurus myosuroides, herbicidal effect grade [12] | H: Echinochloa crus-galli var. crus-galli, herbicidal effect (criteria 0-5) [13] | Herbicidal effect grade, A: Echinochloa oryzacola Vasing. [14] | R: Veronica persica, herbicidal effect grade [15] | P: Stellaria media, herbicidal effect (criteria 0-5) [16] | Herbicidal effect grade, B: Scirpus juncoides [17] | herbicidal effect on H (Echinochloa crus-galli var. crus-galli), grade 0-5 [18] | herbicidal effect on D (Leptochloa chinensis), grade 0-5 [19] | N: Amaranthus retroflexus, herbicidal effect (criteria 0-5) [20]
CON=C(CC1CC(O)=C(c2c(C)cc(C)cc2C)C1=O)C(F)(F)F (stereo not shown) [1-097] | 5 (Herbicidal ratio of 90% or more (almost completely withered)) | 5 (Herbicidal ratio of 90% or more (almost completely withered)) | 1 (Herbicidal ratio of 5% or higher and lower than 20%) | 1 (Herbicidal ratio of 5% or higher and lower than 20%) | 0 (Herbicidal ratio of 5% or lower (almost no effect)) | 2 (Herbicidal ratio of 20% or higher and lower than 40%) | 0 (Herbicidal ratio of 5% or lower (almost no effect)) | 2 (Herbicidal ratio of 20% or higher and lower than 40%) | 0 (Herbicidal ratio of 5% or lower (almost no effect)) | 0 (Herbicidal ratio of 5% or lower (almost no effect)) | 2 (Herbicidal ratio of 20% or higher and lower than 40%) | 2 (Herbicidal ratio of 20% or higher and lower than 40%) | 5 (Herbicidal ratio of 90% or more (almost completely withered)) | 1 (Herbicidal ratio of 5% or higher and lower than 20%) | 0 (Herbicidal ratio of 5% or lower (almost no effect)) | 0 (Herbicidal ratio of 5% or lower (almost no effect)) | 0 (Herbicidal ratio of 5% or lower (almost no effect)) | – | – | –
C=C(C)CN(CC)C(=O)OC1=C(c2c(C)cc(C)cc2C)C(=O)C(CC(C)=NOC)C1 (stereo not shown) [1-130] | 5 (Herbicidal ratio of 90% or more (almost completely withered)) | 5 (Herbicidal ratio of 90% or more (almost completely withered)) | 0 (Herbicidal ratio of 5% or lower (almost no effect)) | – | 0 (Herbicidal ratio of 5% or lower (almost no effect)) | 3 (Herbicidal ratio of 40% or higher and lower than 70%) | 0 (Herbicidal ratio of 5% or lower (almost no effect)) | 0 (Herbicidal ratio of 5% or lower (almost no effect)) | 0 (Herbicidal ratio of 5% or lower (almost no effect)) | 0 (Herbicidal ratio of 5% or lower (almost no effect)) | 0 (Herbicidal ratio of 5% or lower (almost no effect)) | 3 (Herbicidal ratio of 40% or higher and lower than 70%) | 5 (Herbicidal ratio of 90% or more (almost completely withered)) | 1 (Herbicidal ratio of 5% or higher and lower than 20%) | 0 (Herbicidal ratio of 5% or lower (almost no effect)) | 0 (Herbicidal ratio of 5% or lower (almost no effect)) | 0 (Herbicidal ratio of 5% or lower (almost no effect)) | 4 (Herbicidal ratio of 70% or higher and lower than 90%) | 5 (Herbicidal ratio of 90% or more (almost completely withered)) | 0 (Herbicidal ratio of 5% or lower (almost no effect))
CC(CC1CC(O)=C(c2c(C)cc(C)cc2C)C1=O)=NOCc1ccc(F)cc1 (stereo not shown) [1-136] | 5 (Herbicidal ratio of 90% or more (almost completely withered)) | 5 (Herbicidal ratio of 90% or more (almost completely withered)) | 3 (Herbicidal ratio of 40% or higher and lower than 70%) | 0 (Herbicidal ratio of 5% or lower (almost no effect)) | 0 (Herbicidal ratio of 5% or lower (almost no effect)) | 5 (Herbicidal ratio of 90% or more (almost completely withered)) | 5 (Herbicidal ratio of 90% or more (almost completely withered)) | 5 (Herbicidal ratio of 90% or more (almost completely withered)) | 3 (Herbicidal ratio of 40% or higher and lower than 70%) | 5 (Herbicidal ratio of 90% or more (almost completely withered)) | 2 (Herbicidal ratio of 20% or higher and lower than 40%) | 5 (Herbicidal ratio of 90% or more (almost completely withered)) | 5 (Herbicidal ratio of 90% or more (almost completely withered)) | 4 (Herbicidal ratio of 70% or higher and lower than 90%) | 0 (Herbicidal ratio of 5% or lower (almost no effect)) | 1 (Herbicidal ratio of 5% or higher and lower than 20%) | 4 (Herbicidal ratio of 70% or higher and lower than 90%) | 5 (Herbicidal ratio of 90% or more (almost completely withered)) | 2 (Herbicidal ratio of 20% or higher and lower than 40%) | –
